These results are taken from PubChem BioAssay (NCI).

Some test systems named below: K-562 leukemia; HCC-2998 colon; A498 renal; DU-145 prostate; BT-549 breast; HOP-62 NSCLC; UACC-257 melanoma; EKVX NSCLC; LOX IMVI melanoma; RXF 393 renal.
What all share (assay): NCI-60 cell line screen, 48 h

Several values for one entry are separate records, joined by “and”; a condition that tells them apart may be missing. Identical values can stand only once.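 Tested at 5 concentrations; 48 h exposure; 96-well plates; endpoints linearly interpolated, else capped at highest concentration. The concentration for 50% growth inhibition is given as GI50. TGI is the concentration that stops growth completely.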 Bounds are passed on as bounds.

With `NC1=CC(=O)C(=O)c2cccnc21`, the GI50 is 3.03 µM in the experiment with K-562 leukemia; 14.7 µM with HCC-2998 colon; 10.2 µM with A498 renal; 4.94 µM in the experiment with DU-145 prostate; 4.73 µM with BT-549 breast; 2.58 µM in the experiment on HOP-62 NSCLC. Besides, the GI50 is 2.23 µM in the experiment on UACC-257 melanoma, 12.5 µM with EKVX NSCLC, 1.7 µM in the experiment on LOX IMVI melanoma and 14.2 µM in the experiment on RXF 393 renal. Also, the TGI with K-562 leukemia amounted to 10.6 µM; with HCC-2998 colon it was 28.4 µM; in the experiment on A498 renal, 22.7 µM; in the experiment on DU-145 prostate, 16.3 µM; with BT-549 breast, 18.7 µM; with HOP-62 NSCLC, 7.15 µM. The TGI with UACC-257 melanoma turned out to be 6.7 µM; with EKVX NSCLC, 26.1 µM; with LOX IMVI melanoma it was 4.38 µM; with RXF 393 renal, 27.2 µM.
Take `BrP(NC1CCCCCC1)(c1ccccc1)(c1ccccc1)c1ccccc1`: the TGI in the experiment on K-562 leukemia was greater than 100 µM; in the experiment on HCC-2998 colon it was 6.49 µM; with A498 renal, 7.26 µM; in the experiment with DU-145 prostate, 29.9 µM; in the experiment on BT-549 breast, 9.57 µM; in the experiment on HOP-62 NSCLC it was 35.5 µM. Also, the TGI came to 6.3 µM with UACC-257 melanoma, 35.4 µM in the experiment on EKVX NSCLC, 10.4 µM in the experiment on LOX IMVI melanoma and 5.57 µM in the experiment on RXF 393 renal.
As for `CC1=C[C@H]2c3c(c(O)c(O)c4oc5cc(O)cc(O)c5c(=O)c34)[C@H](c3cc(O)c(O)c4oc5cc(O)cc(O)c5c(=O)c34)[C@H]2C(C)(C)C1`, the GI50 in the experiment on K-562 leukemia is 0.477 µM and 0.536 µM; in the experiment with HCC-2998 colon it was 1.91 µM and 2.5 µM; in the experiment with A498 renal, 1.89 µM; in the experiment with DU-145 prostate, 2.48 µM and 2.08 µM; in the experiment on BT-549 breast, 0.664 µM and 1.87 µM; with HOP-62 NSCLC it was 1.53 µM. The GI50 in the experiment with UACC-257 melanoma was 3.02 µM and 4.3 µM; in the experiment with EKVX NSCLC, 2.67 µM and 2.2 µM; in the experiment with LOX IMVI melanoma, 1.12 µM and 0.87 µM; in the experiment with RXF 393 renal, 1.76 µM. Besides, the TGI in the experiment on K-562 leukemia is 10.3 µM and > 100 µM; in the experiment with HCC-2998 colon, 3.78 µM and 10 µM; with A498 renal, 4.63 µM; in the experiment with DU-145 prostate it was 11.4 µM and 12.8 µM; in the experiment with BT-549 breast it was 8.48 µM and 6.24 µM; in the experiment on HOP-62 NSCLC, 4 µM and 6 µM. In addition, the TGI with UACC-257 melanoma was 9.78 µM and 21.6 µM; in the experiment with EKVX NSCLC, 13.7 µM and 8.53 µM; in the experiment on LOX IMVI melanoma, 2.36 µM and 2.19 µM; with RXF 393 renal, 4.3 µM and 4.04 µM.
`Cn1c2ccccc2c2cc(-c3ccccc3)c3c(c21)C(=O)C=CC3=O`: the TGI in the experiment with K-562 leukemia was greater than 70.6 µM; with HCC-2998 colon, greater than 88.9 µM; in the experiment with A498 renal, 48.7 µM; in the experiment with DU-145 prostate it was greater than 100 µM; in the experiment on BT-549 breast, 26.5 µM; in the experiment with HOP-62 NSCLC, greater than 76 µM. Moreover, the TGI was 50.9 µM in the experiment with UACC-257 melanoma, greater than 100 µM in the experiment on EKVX NSCLC, 34.7 µM with LOX IMVI melanoma and 31.1 µM in the experiment with RXF 393 renal.
